According to publication PMC12305662, “Fragment-Based Development of Small Molecule Inhibitors Targeting Mycobacterium tuberculosis Cholesterol Metabolism” (Journal of Medicinal Chemistry, 2025):
Like-named read-outs stand apart in the source and are kept apart here.

What was measured:
[1] = target: CYP125 (Mycobacterium tuberculosis, UniProt P9WPP1); format: binding; settings: for CYP125 Δλmax (nm) HS: high spin population, '-' = no HS maxima present; for CYP125 Δλmax (nm) LS: low spin population, '-' = no LS maxima present; for Δλmax (nm) CYP125, fragment screen: fragment 1 mM, P450 4-6 µM, Soret shift relative to DMSO (393 nm)
Sequence of CYP125 (P9WPP1 whole entry, the tested form may be a part): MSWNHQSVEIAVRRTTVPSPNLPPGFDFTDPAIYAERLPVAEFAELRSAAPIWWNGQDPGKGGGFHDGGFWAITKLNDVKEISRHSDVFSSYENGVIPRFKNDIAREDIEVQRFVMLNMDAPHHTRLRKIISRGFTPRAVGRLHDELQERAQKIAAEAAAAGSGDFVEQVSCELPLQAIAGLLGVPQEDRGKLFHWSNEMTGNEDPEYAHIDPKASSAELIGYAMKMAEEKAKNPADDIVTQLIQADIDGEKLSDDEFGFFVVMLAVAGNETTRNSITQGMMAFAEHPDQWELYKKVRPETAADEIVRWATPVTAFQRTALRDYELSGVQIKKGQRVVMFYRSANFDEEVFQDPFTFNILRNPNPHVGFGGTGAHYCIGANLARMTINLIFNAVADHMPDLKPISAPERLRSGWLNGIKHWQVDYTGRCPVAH

[2] = target: CYP142 (Mycobacterium tuberculosis, UniProt P9WPL5); settings: for CYP142 Δλmax (nm): compound 100 µM, P450 5 µM; for Δλmax (nm) CYP142, fragment screen: fragment 1 mM, P450 4-6 µM, relative to DMSO (418.5 nm)
Sequence of CYP142 (P9WPL5 whole entry, the tested form may be a part): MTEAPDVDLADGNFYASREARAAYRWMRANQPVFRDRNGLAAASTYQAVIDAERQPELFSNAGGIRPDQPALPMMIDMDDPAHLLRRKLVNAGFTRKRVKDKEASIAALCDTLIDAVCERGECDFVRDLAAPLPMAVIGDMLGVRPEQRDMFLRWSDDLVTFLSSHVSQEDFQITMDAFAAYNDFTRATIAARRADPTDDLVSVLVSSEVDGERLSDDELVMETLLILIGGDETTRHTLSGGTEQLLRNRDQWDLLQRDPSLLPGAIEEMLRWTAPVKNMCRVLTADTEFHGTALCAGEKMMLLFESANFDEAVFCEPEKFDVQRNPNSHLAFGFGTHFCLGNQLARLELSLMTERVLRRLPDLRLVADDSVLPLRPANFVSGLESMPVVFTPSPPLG

[3] = target: CYP143 (Mycobacterium tuberculosis, UniProt P9WPL3); settings: fragment 1 mM, P450 4-6 µM; relative to DMSO (416 nm)
Sequence of CYP143 (P9WPL3 whole entry, the tested form may be a part): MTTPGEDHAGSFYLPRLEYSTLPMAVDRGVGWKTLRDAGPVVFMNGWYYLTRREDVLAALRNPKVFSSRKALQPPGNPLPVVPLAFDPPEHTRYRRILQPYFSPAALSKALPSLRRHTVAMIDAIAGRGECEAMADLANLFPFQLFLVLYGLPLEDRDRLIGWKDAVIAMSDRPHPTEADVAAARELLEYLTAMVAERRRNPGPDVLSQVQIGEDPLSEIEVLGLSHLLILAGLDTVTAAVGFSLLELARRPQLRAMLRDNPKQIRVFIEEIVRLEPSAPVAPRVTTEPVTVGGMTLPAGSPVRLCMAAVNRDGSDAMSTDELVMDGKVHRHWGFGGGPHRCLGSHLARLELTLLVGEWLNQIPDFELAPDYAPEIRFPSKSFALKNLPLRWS

[4] = target: CYP126 (Mycobacterium tuberculosis, UniProt P9WPN9); settings: fragment 1 mM, P450 4-6 µM; relative to DMSO (418 nm)
Sequence of CYP126 (P9WPN9 whole entry, the tested form may be a part): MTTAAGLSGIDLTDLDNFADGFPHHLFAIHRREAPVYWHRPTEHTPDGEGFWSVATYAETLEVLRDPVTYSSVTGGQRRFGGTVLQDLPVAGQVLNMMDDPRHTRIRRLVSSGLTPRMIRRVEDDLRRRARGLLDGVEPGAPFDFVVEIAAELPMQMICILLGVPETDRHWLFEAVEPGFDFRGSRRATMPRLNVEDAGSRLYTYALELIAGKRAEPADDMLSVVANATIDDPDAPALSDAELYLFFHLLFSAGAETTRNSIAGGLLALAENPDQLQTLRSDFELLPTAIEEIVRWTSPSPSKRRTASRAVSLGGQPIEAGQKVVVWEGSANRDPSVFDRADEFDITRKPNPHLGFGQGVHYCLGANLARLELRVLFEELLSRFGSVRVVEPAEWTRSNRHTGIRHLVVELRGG

[5] = target: CYP124 (Mycobacterium tuberculosis, UniProt P9WPP3); settings: fragment 1 mM, P450 4-6 µM; relative to DMSO (419 nm)
Sequence of CYP124 (P9WPP3 whole entry, the tested form may be a part): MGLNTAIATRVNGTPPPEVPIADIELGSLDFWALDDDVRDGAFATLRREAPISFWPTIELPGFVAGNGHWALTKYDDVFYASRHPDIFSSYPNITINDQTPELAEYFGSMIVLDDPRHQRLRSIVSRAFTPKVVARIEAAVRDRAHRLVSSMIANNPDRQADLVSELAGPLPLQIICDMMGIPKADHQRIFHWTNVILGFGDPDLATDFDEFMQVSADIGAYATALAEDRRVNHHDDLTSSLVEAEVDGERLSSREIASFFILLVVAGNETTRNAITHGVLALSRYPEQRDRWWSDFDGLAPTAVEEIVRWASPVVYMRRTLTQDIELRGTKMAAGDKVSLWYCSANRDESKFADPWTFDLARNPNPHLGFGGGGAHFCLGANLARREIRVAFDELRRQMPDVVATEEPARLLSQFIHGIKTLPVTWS

[6] = target: CYP121 (Mycobacterium tuberculosis, UniProt P9WPP7); settings: fragment 1 mM, P450 4-6 µM; relative to DMSO (417 nm)
Sequence of CYP121 (P9WPP7 whole entry, the tested form may be a part): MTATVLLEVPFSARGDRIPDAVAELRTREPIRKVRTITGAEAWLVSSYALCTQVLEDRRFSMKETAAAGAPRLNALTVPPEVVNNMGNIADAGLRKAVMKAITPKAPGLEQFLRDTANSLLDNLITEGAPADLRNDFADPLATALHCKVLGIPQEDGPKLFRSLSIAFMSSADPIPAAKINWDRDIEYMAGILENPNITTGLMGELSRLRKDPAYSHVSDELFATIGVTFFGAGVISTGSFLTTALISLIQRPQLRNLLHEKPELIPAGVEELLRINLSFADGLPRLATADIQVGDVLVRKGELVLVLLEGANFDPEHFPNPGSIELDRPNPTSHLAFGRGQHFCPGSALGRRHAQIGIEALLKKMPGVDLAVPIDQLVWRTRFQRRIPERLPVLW

[7] = target: CYP144 (Mycobacterium tuberculosis, UniProt P9WPL1); settings: fragment 1 mM, P450 4-6 µM; relative to DMSO (421 nm)
Sequence of CYP144 (P9WPL1 whole entry, the tested form may be a part): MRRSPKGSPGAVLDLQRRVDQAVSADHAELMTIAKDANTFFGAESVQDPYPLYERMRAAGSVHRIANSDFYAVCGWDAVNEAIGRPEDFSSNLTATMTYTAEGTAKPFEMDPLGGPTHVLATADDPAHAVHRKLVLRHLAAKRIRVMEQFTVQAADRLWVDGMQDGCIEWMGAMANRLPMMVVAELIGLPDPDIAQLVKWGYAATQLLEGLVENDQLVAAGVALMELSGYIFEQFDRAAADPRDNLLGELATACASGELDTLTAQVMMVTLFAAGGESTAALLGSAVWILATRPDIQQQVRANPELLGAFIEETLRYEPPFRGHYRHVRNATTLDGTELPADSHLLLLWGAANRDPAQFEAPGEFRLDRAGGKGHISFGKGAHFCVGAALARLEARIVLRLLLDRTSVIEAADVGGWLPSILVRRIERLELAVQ

[8] = compound 100 µM, P450 5 µM, ratio of low spin to high spin CYP125

Molecule | CYP125 Δλmax (nm) HS ([1]; compound 100 µM, P450 5 µM) [nm] | CYP125 Δλmax (nm) LS ([1]; compound 100 µM, P450 5 µM) [nm] | CYP142 Δλmax (nm) [2] [nm] | CYP125 LS/HS [1, 8] | CYP125 LS/HS [1] | Δλmax (nm) CYP143, fragment screen [3] [nm] | Δλmax (nm) CYP126, fragment screen [4] [nm] | Δλmax (nm) CYP142, fragment screen [2] [nm] | Δλmax (nm) CYP125, fragment screen [1] [nm] | Δλmax (nm) CYP124, fragment screen [5] [nm] | Δλmax (nm) CYP121, fragment screen [6] [nm] | Δλmax (nm) CYP144, fragment screen [7] [nm]
3-(Pyridin-4-ylmethyl)aniline [3d] | 3 | 29 | – | – | – | – | – | – | – | – | – | –
CN(c1ccccc1)c1ccncc1 [2b, N-Methyl-N-phenylpyridin-4-amine] | 1 | 25 | 4 | 0.9 | – | – | – | – | – | – | – | –
c1ccc(N(c2ccccc2)c2ccncc2)cc1 [2c, N,N-Diphenylpyridin-4-amine] | 2 | 28 | 4 | 1 | – | – | – | – | – | – | – | –
c1ccc(Oc2ccncc2)cc1 [2d, 4-Phenoxypyridine] | 1 | 25 | 2 | 1 | – | – | – | – | – | – | – | –
O=S(=O)(c1ccccc1)c1ccncc1 [2e, 4-(Phenylsulfonyl)pyridine] | 0 | – | 0 | – | – | – | – | – | – | – | – | –
O=C(c1ccccc1)c1ccncc1 [2f] | 0 | – | 0 | – | – | – | – | – | – | – | – | –
C(=C\c1ccncc1)/c1ccccc1 [2g, (E)-4-Styrylpyridine] | – | 29 | 3 | 1.4 | – | – | – | – | – | – | – | –
c1ccc(CCc2ccncc2)cc1 [2h, 4-Phenethylpyridine] | 2 | 26 | 2 | 1 | – | – | – | – | – | – | – | –
COc1cccc(Cc2ccncc2)c1 [3a, 4-(3-Methoxybenzyl)pyridine] | 1 | 27 | 2 | 1.1 | – | – | – | – | – | – | – | –
COc1ccc(Cc2ccncc2)cc1 [3b, 4-(4-Methoxybenzyl)pyridine] | 1 | 25 | 2 | 1 | – | – | – | – | – | – | – | –
Nc1ccc(Cc2ccncc2)cc1 [3e] | 3 | 29 | 3 | – | 1.7 | – | – | – | – | – | – | –
Nc1cccc(Nc2ccncc2)c1 [4a, N^1-(Pyridin-4-yl)benzene-1,3-diamine] | 1 | 22 | 3 | 0.9 | – | – | – | – | – | – | – | –
Nc1ccc(Nc2ccncc2)cc1 [4b, N^1-(Pyridin-4-yl)benzene-1,4-diamine] | 1 | 31 | 3 | 1.3 | – | – | – | – | – | – | – | –
COC(=O)c1cccc(Nc2ccncc2)c1 [4c, Methyl/Ethyl 3-(pyridin-4-ylamino)benzoate] | 1 | 27 | 3 | 1 | – | – | – | – | – | – | – | –
COC(=O)c1ccc(Nc2ccncc2)cc1 [4d, Methyl 4-(pyridin-4-ylamino)benzoate] | 2 | 26 | 3 | 1 | – | – | – | – | – | – | – | –
O=C(O)c1cccc(Nc2ccncc2)c1 [4e, 3-(Pyridin-4-ylamino)benzoic Acid] | 0 | – | 0 | – | – | – | – | – | – | – | – | –
O=C(O)c1ccc(Nc2ccncc2)cc1 [4f, 4-(Pyridin-4-ylamino)benzoic Acid] | 1 | – | 0 | – | – | – | – | – | – | – | – | –
OCc1cccc(Nc2ccncc2)c1 [4g] | 0 | – | 1 | – | – | – | – | – | – | – | – | –
Brc1cccc(Nc2ccncc2)c1 [4h, N-(3-Bromophenyl)pyridin-4-amine] | – | 31 | 4 | 1.4 | – | – | – | – | – | – | – | –

Molecule | CYP125 Δλmax (nm) HS ([1]; compound 100 µM, P450 5 µM) [nm] | CYP125 Δλmax (nm) LS ([1]; compound 100 µM, P450 5 µM) [nm] | CYP142 Δλmax (nm) [2] [nm] | CYP125 LS/HS [1, 8] | CYP125 LS/HS [1] | Δλmax (nm) CYP143, fragment screen [3] [nm] | Δλmax (nm) CYP126, fragment screen [4] [nm] | Δλmax (nm) CYP142, fragment screen [2] [nm] | Δλmax (nm) CYP125, fragment screen [1] [nm] | Δλmax (nm) CYP124, fragment screen [5] [nm] | Δλmax (nm) CYP121, fragment screen [6] [nm] | Δλmax (nm) CYP144, fragment screen [7] [nm]
Brc1ccc(Nc2ccncc2)cc1 [4i, N-(4-Bromophenyl)pyridin-4-amine] | 2 | 29 | 4 | 1.2 | – | – | – | – | – | – | – | –
O=C(O)c1ccnnc1 [compound 1] | – | – | – | – | – | 0.5 | 0 | 0 | 0 | 0 | -1 | 0
c1ccc(-c2ccn[nH]2)nc1 [compound 2] | – | – | – | – | – | 0 | 0 | 0 | 0 | 0 | 0 | 0
c1ccc(-c2ncc[nH]2)cc1 [compound 4] | – | – | – | – | – | 0 | 0 | 0 | 0 | 0 | 0 | 0
Nc1cccc(Cn2cncn2)c1 [compound 5] | – | – | – | – | – | 1 | 0 | 1.5 | 0 | 1 | 2 | 0
Cc1cc(N)n(-c2ccccc2)n1 [compound 6] | – | – | – | – | – | 0.5 | 0 | 0 | 0 | 0 | 0 | 0
Cc1ccc(=O)[nH]n1 [compound 7] | – | – | – | – | – | 0 | 0 | 0 | 0 | 0 | 0 | 0
OCc1ccc(-c2ccncc2)cc1 [compound 8] | – | – | – | – | – | 1 | 3 | 0 | 25 | 1 | 1 | 0
OCc1nccn1Cc1ccccc1 [compound 10] | – | – | – | – | – | 1 | 0 | 3 | 0 | 1 | 0 | 0
Cn1nc(-c2ccccc2)cc1N [compound 11] | – | – | – | – | – | -0.5 | 0 | 0 | 0 | 0 | 0 | 0
Nc1cc(-c2ccc(Cl)cc2)n[nH]1 [compound 12] | – | – | – | – | – | 0 | 1 | 0 | -2 | -1 | 2 | 0
Clc1nccc2ccc(Br)cc12 [compound 37] | – | – | – | – | – | – | 0 | 0 | 0 | 0 | -3 | 0
Nc1cccnc1O [compound 45] | – | – | – | – | – | 0 | 0 | 0 | 0 | 0 | – | 0
O=[N+]([O-])c1ccc(Br)c2ccncc12 [compound 59] | – | – | – | – | – | – | 0 | 0 | 0 | 1 | – | 0
Clc1cccnc1Cl [compound 61] | – | – | – | – | – | 0 | 0 | 0 | – | 0 | 0 | 0
Nn1cccc1C(=O)O [compound 62] | – | – | – | – | – | 4 | 0 | 0 | – | 0 | – | 0
COc1ncccc1C(=O)O [compound 65] | – | – | – | – | – | 1 | 0 | 0 | – | 0 | 0 | 0
Nc1cccnc1N [compound 66] | – | – | – | – | – | 0 | 0 | 0 | – | 0 | – | 0
